# According to ChEMBL document CHEMBL5576153, “Synthesis of diversely substituted pyridin-2(1H)-ones and in vivo evaluation of their anti-allodynic effect on cutaneous inflammatory mechanical allodynia” (2024):
# Active and inactive are the calls of the source. No cut-off for these calls is given here.
# Tested on: Rattus norvegicus
# Assay: Anti-allodynic activity in rat model of capsaicin-induced inflammatory paw pain assessed as inhibition of mechanical allodynia at 5 uM administered intrathecally 30 mins prior to capsaicin induction and measured at 10 mins interval for 65 mins by von frey test relative to control
# Assay type: functional
# Details: central, 1.583 h, time 95 min
row,Structure (SMILES),inhibition in vivo at 5 µM
1,O=c1[nH]cc(Nc2ccncc2)cc1-c1cccc2[nH]ccc12,56%
2,O=c1[nH]cc(OC2CCNCC2)cc1-c1cccc2[nH]ccc12,64%
3,COc1ncc(Nc2ccncc2)cc1-c1cccc2[nH]ccc12,85%
4,O=C(Nc1c[nH]c(=O)c(-c2cccc3[nH]ccc23)c1)c1ccc([N+](=O)[O-])cc1,58%

# Same assay, conditions: time 95.0 min
row,Structure (SMILES),inhibition
1,CN(c1ccncc1)c1c[nH]c(=O)c(-c2cccc3[nH]ccc23)c1,Active
2,CCN(CC)CCCn1ccc2c(-c3cc(Nc4ccncc4)c[nH]c3=O)cccc21,inactive
3,O=c1[nH]cc(Oc2ccncc2)cc1-c1cccc2[nH]ccc12,Active
4,O=C(Nc1c[nH]c(=O)c(-c2cccc3[nH]ccc23)c1)C1CCNCC1,Active
5,O=C(Nc1c[nH]c(=O)c(-c2cccc3[nH]ccc23)c1)c1ccncc1,Active
6,O=c1[nH]cc(Oc2ccc([N+](=O)[O-])cc2)cc1-c1cccc2[nH]ccc12,Active
7,CCN(CC)CCCCn1ccc2c(-c3cc(Nc4ccncc4)c[nH]c3=O)cccc21,inactive
8,Cn1ccc2c(-c3cc(Nc4ccncc4)c[nH]c3=O)cccc21,inactive
